{"source": "paper PMC9474773", "about": "“PARP targeted Auger emitter therapy with [^125I]PARPi-01 for triple-negative breast cancer” (EJNMMI Research, 2022)", "key": {"MCF-7": {"tested_on": "MCF-7", "experiment": "Nuclear uptake, subcellular fractionation with gamma counter", "format": "cell-based", "details": "24 h, 1 MBq/10^6 cells", "procedure": "(§1) Breast cancer cells were seeded (0.5 × 10^6) in a 12-well plate and treated with [^125I]PARPi-01 (1 MBq/10^6 cells) for 24 h. Subcellular fractionation was performed using a Subcellular Fractionation kit (ThermoFischer inc., #78840. Protein concertation was assessed using BCA assay. SDS-PAGE was performed using the fractions (30 µg/lane) and Any KD Mini-Protean TGX gels (90 V for 1.5 h). The separated proteins were transferred to PVDF membranes using a wet blotting (60 V, 2 h) technique. The blots were then blocked with 1% Milk/TBST and incubated with a primary antibody (anti-PARP1 (1:1000); Abcam ab227244; anti-GAPDH (1:4000); cell signalling 14C10, or anti-Histon H3 1:1000) Abcam ab1791). For the phosphorimager analysis, after blotting, the blots were sandwiched with a Fujifilm Imaging plate for Bioanalyzer (BAS-MS 2040), and incubated overnight, and the protein bound activity was imaged using a phosphorimager (Typhoon FLA 7000 version 1.2). To assess the tracer uptake, both fractions were measured using a gamma counter (Wizard^2, Perkin Elmer, USA)."}, "MDA-MB-468": {"tested_on": "MDA-MB-468", "experiment": "Nuclear uptake, subcellular fractionation with gamma counter", "format": "cell-based", "details": "24 h, 1 MBq/10^6 cells", "procedure": "as §1"}, "MDA-MB-231": {"tested_on": "MDA-MB-231", "experiment": "Nuclear uptake, subcellular fractionation with gamma counter", "format": "cell-based", "details": "24 h, 1 MBq/10^6 cells", "procedure": "as §1"}, "[1]": {"tested_on": "MDA-MB-231 tumour tissue, liver, thyroid", "experiment": "Apoptosis (TUNEL) staining of ex vivo tissue sections", "format": "in vivo, NOD/SCID mice", "procedure": "Organs excised and retrieved from control (n = 3) and therapy mice (n = 3) were fixed with 4% PFA overnight at 4 °C. For cryopreservation, the organs were kept for 2–3 days at 4 °C in 30% sucrose Cryosections (6 µm) of excised and preserved organs were made using a cryostat (Leica, CM3050S). For TUNEL fluorescence quantification, therapy mice (n = 3) and control mice (n = 3) slices were stained simultaneously. The TUNEL staining kit (Roche # 11684795910) was used and protocol was followed as mentioned in the staining kit. Tissues were washed with PBS and permeabilised with 0.1 % Triton-X in 0.1 % […] on ice for 2 min. Following permeabilization, sections were incubated with TUNEL reaction mixture (Fluorescence labelled Terminal deoxynucleotidyl transferase enzyme dissolved in nucleotide buffer) for 1 h at 37 °C. After PBS wash, the cells were mounted with RotiMount® Vectashield containing DAPI and analysed using fluorescence microscopy (Zen Lite, Carl Zeiss). The images were processed and quantified using CellProfiler 3.0 software."}, "[2]": {"tested_on": "subcutaneous MDA-MB-231 models", "experiment": "Endogenous therapy study (CT-based tumour growth, survival, [18F]FDG PET)", "format": "in vivo, NOD/SCID mice", "procedure": "Female NOD/SCID mice at 5–6 weeks of age (Janvier, France) was used for developing subcutaneous TNBC tumour. Animals were housed in 20–24 °C in a 12 h day light cycle. For each mouse, 3 × 10^6 MDA-MB-231 cells were suspended in a 1:1 (volume) mixture of Culture media: Matrigel® matrix (Corning®, Product No: 356237). Mice were inoculated with this cell suspension (max 200 µl) subcutaneously in the right flank. Tumour growth was monitored daily using calliper measurements. Tumour volume was calculated daily according to the formula Tumourvolume=TumourLength×Tumourbreadth^2×0.52\nUpon reaching of a tumour volume of 500 mm^3, animals were proceeded for experiments. For biodistribution study animals were administered with [^123I]PARPi-01 (n = 3). For therapy studies animals were randomized for control (n = 10) or [^125I]PARPi-01 administration (n = 10). Randomisation was done based on equivalent distribution of tumour volumes. In addition to the daily calliper measurements image analysis of CT based tumour volumes was blinded to avoid bias. Animals were sacrificed upon completion of biodistribution study or upon reaching a humane end point for the therapy study. Humane end point is determined as reaching of either of the following conditions: 15 mm tumour diameter, 1500 mm^3 tumour volume, or development of ulcers/ascites.\nMice were administered intravenously via lateral tail vain with Saline (0.9% NaCl) or [^125I]PARPi-01 (8.15 ± 2.9 MBq/dose) in four doses at 10-day intervals. The tumour volume was measured using [^18F]FDG based PET/CT (Trifoil, USA) once per week. [^18F]FDG (2.3 ± 0.4 MBq, AAA, Düsseldorf, Germany) was intraperitoneally administered and scanned 30 min later. Upon reaching 520 mm^3 tumour volume, one additional CT imaging per week (Trifoil, USA) apart from the PET/CT was performed for monitoring tumour growth.\nAfter injection with [^18F]FDG, the mice were placed on the scanner bed and the CT scan was initiated. The exposure settings used were as follows: 130 uA, 75 kVp, 230 ms exposure time, and 360° rotation with 512 views; the duration of the CT scans was ~ 5 min. A dynamic 30 min PET scan was initiated at the end of the CT scan. […] During the scans, the isoflurane concentration was adapted to achieve a respiratory rate between 75–50 breaths per minute. Mice were maintained at 1% Isoflurane and heated at 37 °C from anaesthesia induction to the end of imaging. The CT images were reconstructed using a Feldkamp filtered back projection reconstruction process to a voxel size of 0.154 × 0.154 × 0.154 mm in a 592 × 592 × 560 matrix. Using vendor software, the CT values were converted into Hounsfield units (HU) using the following formula HU=1000×μt-μw÷μw where µw is the linear attenuation coefficient of the water and µt is the linear attenuation coefficient of the tissue. The PET data were reconstructed using a 3D ordered-subset expectation maximization (i.e., OSEM-3D with three iterations and eight subsets) with a maximum a posteriori probability algorithm (30 iterations) into a 240 × 240 × 192 image matrix (resulting in final voxel dimensions of 0.25 × 0.25 × 0.597 mm). PET normalization, CT attenuation correction, and CT scatter correction were applied to all PET reconstructions. The PET images were automatically aligned to the CT using a custom-made transformation in PMOD software package from a capillary phantom.\nAll statistical analyses were performed using the Graph-Pad Prism software (Version 9.1.1). Biodistribution data is expressed as mean ± standard deviation. Kaplan–Meier Survival curve was analysed using survival analysis (Log rank Mantel-Cox test). The data points of the normalized tumour volume as a function of the time of the groups (Control, ^125I-PARPi, Control—excluded ulcers, ^125I-PARPi—excluded ulcers) were subjected to nonlinear regression analysis using the exponential growth formula Y = Y0*exp(k*x) (Malthusian). Accordingly, the doubling time is equal to ln(2)/k. […]"}}, "note": "“Also recorded” adds a separate entry of the source.", "data": [{"smiles": "O=C(c1ccc([125I])cc1)N1CCN(C(=O)c2cc(Cc3n[nH]c(=O)c4ccccc34)ccc2F)CC1", "note": "[[^125I]PARPi-01]", "values": [{"measurement": "nuclear tracer localization, of total tracer", "setting": "MCF-7", "value": "more than 40%"}, {"measurement": "nuclear tracer localization, of total tracer", "setting": "MDA-MB-468", "value": "> 75", "unit": "%"}, {"measurement": "nuclear tracer localization, of total tracer", "setting": "MDA-MB-231", "value": "> 75", "unit": "%"}, {"measurement": "apoptosis in liver or thyroid", "setting": "[1]; therapy group", "value": "did not show any noticeable apoptosis; also recorded: no noticeable apoptosis"}, {"measurement": "percentage of nuclei in tumour positive for apoptosis", "setting": "[1]; therapy group n = 3, P < 0.05 vs control", "value": "52.5 ± 19.0", "unit": "%"}, {"measurement": "radiotoxicity in liver and thyroid", "setting": "[2]; 4 doses, 10 MBq/dose", "value": "No radiotoxicity was detected"}, {"measurement": "tumour doubling time", "setting": "[2]; CT-based, excluding animals sacrificed for ulcers/ascites, n = 5", "value": 15.07, "unit": "days"}, {"measurement": "tumour doubling time", "setting": "[2]; CT-image-based, 4 doses 10 days apart, all animals n = 10", "value": 14.2, "unit": "days"}, {"measurement": "median survival", "setting": "[2]; all animals n = 10, not significant vs control (P = 0.2505)", "value": 36, "unit": "days"}, {"measurement": "median survival time", "setting": "[2]; excluding animals sacrificed for ulcers/ascites", "value": 38}, {"measurement": "[18F]FDG PET SUV values and tumour metabolic volumes, therapy vs control", "setting": "[2]; mouse, in vivo", "value": "did not show significant difference"}]}]}
